Experimental data: patent publication US20230085307A1, “PYRIDAZINONE COMPOUND AND HERBICIDE” (NISSAN CHEMICAL CORPORATION, priority 2019, published 2023)

Columns and labels:
late watergrass = experiment: Test Example 2: herbicidal activity, application during weed generation under submerged conditions (Table 17, symbol A); type: in vivo, late watergrass (Echinochloa oryzicola); settings: AAH 320 g/ha; application during weed generation, submerged conditions
Procedure, shortened: (§1)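 In this pot test, flooded alluvial soil (water depth 4 cm) holds all three species sown as a mixture. Once seedlings have one to two leaves, the compound's emulsion, thinned with water to the intended dose, is poured on the water; grading follows after three weeks on the earlier criteria.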

Japanese bulrush = experiment: Test Example 2: herbicidal activity, application during weed generation under submerged conditions (Table 17, symbol B); type: in vivo, Japanese bulrush (Schoenoplectus juncoides); settings: AAH 320 g/ha; application during weed generation, submerged conditions
Procedure, shortened: as §1

oval-leafed pondweed = experiment: Test Example 2: herbicidal activity, application during weed generation under submerged conditions (Table 17, symbol C); type: in vivo, oval-leafed pondweed (Monochoria vaginalis); settings: AAH 320 g/ha; application during weed generation, submerged conditions
Procedure, shortened: as §1

southern crabgrass = experiment: Test Example 4: herbicidal effect by soil treatment (Table 19, symbol F); type: in vivo, southern crabgrass (Digitaria ciliaris)
Procedure, shortened: (§2)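 Pre-emergence style soil spray: seeds under ~1.5 cm sterilized diluvial soil received a uniform coat of emulsion diluted to the predetermined herbicide amount. Greenhouse 25–30° C; readout at week three on previously defined criteria.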

green foxtail = experiment: Test Example 4: herbicidal effect by soil treatment (Table 19, symbol G); type: in vivo, green foxtail (Setaria viridis)
Procedure, shortened: as §2

barnyard grass [1] = experiment: Test Example 4: herbicidal effect by soil treatment (Table 19, symbol H); type: in vivo, barnyard grass (Echinochloa crus-galli)
Procedure, shortened: as §2

wild oat = experiment: Test Example 4: herbicidal effect by soil treatment (Table 19, symbol I); type: in vivo, wild oat (Avena fatua)
Procedure, shortened: as §2

blackgrass = experiment: Test Example 4: herbicidal effect by soil treatment (Table 19, symbol J); type: in vivo, blackgrass (Alopecurus myosuroides)
Procedure, shortened: as §2

velvetleaf = experiment: Test Example 4: herbicidal effect by soil treatment (Table 19, symbol M); type: in vivo, velvetleaf (Abutilon theophrasti)
Procedure, shortened: as §2

redroot pigweed [2] = experiment: Test Example 4: herbicidal effect by soil treatment (Table 19, symbol N); type: in vivo, redroot pigweed (Amaranthus retroflexus)
Procedure, shortened: as §2

persian speedwell [3] = experiment: Test Example 4: herbicidal effect by soil treatment (Table 19, symbol R); type: in vivo, Persian speedwell (Veronica persica)
Procedure, shortened: as §2

barnyard grass [4] = experiment: Test Example 5: herbicidal effect by foliage application, plastic box (Table 20, symbol H); type: in vivo, barnyard grass (Echinochloa crus-galli); settings: foliage application, 320 g/ha
Procedure, shortened: (§3)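 Plants were sown into sterilized diluvial soil under about 1.5 cm cover and kept in a greenhouse at 25° C. to 30° C. Fourteen days on, foliage received an even spray of the diluted emulsion. Herbicidal or crop effect was judged three weeks afterwards.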

windgrass = experiment: Test Example 5: herbicidal effect by foliage application, plastic box (Table 20, symbol L); type: in vivo, windgrass (Apera spica-venti); settings: foliage application, 320 g/ha
Procedure, shortened: as §3

redroot pigweed [5] = experiment: Test Example 5: herbicidal effect by foliage application, plastic box (Table 20, symbol N); type: in vivo, redroot pigweed (Amaranthus retroflexus); settings: foliage application, 320 g/ha
Procedure, shortened: as §3

chickweed = experiment: Test Example 5: herbicidal effect by foliage application, plastic box (Table 20, symbol P); type: in vivo, common chickweed (Stellaria media); settings: foliage application, 320 g/ha
Procedure, shortened: as §3

persian speedwell [6] = experiment: Test Example 5: herbicidal effect by foliage application, plastic box (Table 20, symbol R); type: in vivo, Persian speedwell (Veronica persica); settings: foliage application, 320 g/ha
Procedure, shortened: as §3

[7] = amount of applied herbicide 320 g/ha
[8] = evaluated three weeks after application

Q: How did the “herbicidal effect rating, A: late watergrass” value (late watergrass) turn out when `CCCCCOc1cccc(-c2sc3ccc(F)cc3c2-c2c(O)c(C)nn(C)c2=O)c1` [2-225] was run?
A: Its value is 3 (Herbicidal rate of 40% or more and less than 70%).

Q: What about the “herbicidal effect rating, B: Japanese bulrush” value (shortened to “herbicidal effect rating, B”) (Japanese bulrush) of the same molecule?
A: The value was 3 (Herbicidal rate of 40% or more and less than 70%).

Q: What about the “herbicidal effect rating, C: oval-leafed pondweed” value (“herbicidal effect rating, C” for short) (oval-leafed pondweed) of the same molecule?
A: The value was 0 (Herbicidal rate of 5% or less (almost no effect)).

Q: And the “herbicidal effect on F: southern crabgrass” value (southern crabgrass; [7])?
A: Its value is 0 (Herbicidal rate of 5% or less (almost no effect)).

Q: What about the “herbicidal effect on G: green foxtail” value (green foxtail; [7]) of the same molecule?
A: The value was 0 (Herbicidal rate of 5% or less (almost no effect)).

Q: What about the “herbicidal effect on H: barnyard grass” value (barnyard grass [1]; [7]) of the same molecule?
A: Its value is 0 (Herbicidal rate of 5% or less (almost no effect)).

Q: What about the “herbicidal effect on I: wild oat” value (wild oat; [7]) of the same molecule?
A: Its value is 0 (Herbicidal rate of 5% or less (almost no effect)).

Q: What about the “herbicidal effect on J: blackgrass” value (blackgrass; [7]) of the same molecule?
A: The value was 0 (Herbicidal rate of 5% or less (almost no effect)).

Q: And the “herbicidal effect on M: velvetleaf” value (velvetleaf; [7])?
A: Its value is 0 (Herbicidal rate of 5% or less (almost no effect)).

Q: And the “herbicidal effect on N: redroot pigweed” value (redroot pigweed [2]; [7])?
A: The value was 5 (Herbicidal rate of 90% or more (almost completely withered)).

Q: And the “herbicidal effect on R: persian speedwell” value (persian speedwell [3]; [7])?
A: The value was 0 (Herbicidal rate of 5% or less (almost no effect)).

Q: And the “herbicidal effect on H: barnyard grass (criteria 0-5)” value (barnyard grass [4]; [8])?
A: Its value is 3 (Herbicidal rate of 40% or more and less than 70%).

Q: What about the “herbicidal effect on L: windgrass (criteria 0-5)” value (windgrass; [8]) of the same molecule?
A: The value was 4 (Herbicidal rate of 70% or more and less than 90%).

Q: And the “herbicidal effect on N: redroot pigweed (criteria 0-5)” value (redroot pigweed [5]; [8])?
A: Its value is 5 (Herbicidal rate of 90% or more (almost completely withered)).

Q: What about the “herbicidal effect on P: chickweed (criteria 0-5)” value (chickweed; [8]) of the same molecule?
A: The value was 5 (Herbicidal rate of 90% or more (almost completely withered)).

Q: What about the “herbicidal effect on R: persian speedwell (criteria 0-5)” value (persian speedwell [6]; [8]) of the same molecule?
A: The value was 5 (Herbicidal rate of 90% or more (almost completely withered)).

Q: With `CCCC(=O)Oc1c(C)nn(C)c(=O)c1-c1c(-c2ccc(OC3CC3)cc2)sc2ccc(F)cc12` [2-218] as the molecule, how does the “herbicidal effect rating, A: late watergrass” value (late watergrass) read?
A: The value was 1 (Herbicidal rate of 5% or more and less than 20%).

Q: And the “herbicidal effect rating, B” value (Japanese bulrush)?
A: Its value is 3 (Herbicidal rate of 40% or more and less than 70%).

Q: And the “herbicidal effect rating, C” value (oval-leafed pondweed)?
A: The value was 3 (Herbicidal rate of 40% or more and less than 70%).

Q: And the “F: southern crabgrass, herbicidal effect rating” value (southern crabgrass; [7])?
A: Its value is 0 (Herbicidal rate of 5% or less (almost no effect)).

Q: And the “G: green foxtail, herbicidal effect rating” value (green foxtail; [7])?
A: The value was 0 (Herbicidal rate of 5% or less (almost no effect)).

Q: And the “H: barnyard grass, herbicidal effect rating” value (barnyard grass [1]; [7])?
A: The value was 0 (Herbicidal rate of 5% or less (almost no effect)).

Q: And the “I: wild oat, herbicidal effect rating” value (wild oat; [7])?
A: The value was 0 (Herbicidal rate of 5% or less (almost no effect)).

Q: What about the “J: blackgrass, herbicidal effect rating” value (blackgrass; [7]) of the same molecule?
A: Its value is 0 (Herbicidal rate of 5% or less (almost no effect)).

Q: What about the “M: velvetleaf, herbicidal effect rating” value (velvetleaf; [7]) of the same molecule?
A: The value was 0 (Herbicidal rate of 5% or less (almost no effect)).

Q: And the “N: redroot pigweed, herbicidal effect rating” value (redroot pigweed [2]; [7])?
A: The value was 1 (Herbicidal rate of 5% or more and less than 20%).

Q: And the “R: persian speedwell, herbicidal effect rating” value (persian speedwell [3]; [7])?
A: The value was 4 (Herbicidal rate of 70% or more and less than 90%).

Q: And the “herbicidal effect on H: barnyard grass (criteria 0-5)” value (barnyard grass [4]; [8])?
A: The value was 4 (Herbicidal rate of 70% or more and less than 90%).

Q: And the “herbicidal effect on L: windgrass (criteria 0-5)” value (windgrass; [8])?
A: Its value is 5 (Herbicidal rate of 90% or more (almost completely withered)).

Q: What about the “herbicidal effect on N: redroot pigweed (criteria 0-5)” value (redroot pigweed [5]; [8]) of the same molecule?
A: Its value is 2 (Herbicidal rate of 20% or more and less than 40%).

Q: What about the “herbicidal effect on P: chickweed (criteria 0-5)” value (chickweed; [8]) of the same molecule?
A: Its value is 5 (Herbicidal rate of 90% or more (almost completely withered)).

Q: And the “herbicidal effect on R: persian speedwell (criteria 0-5)” value (persian speedwell [6]; [8])?
A: Its value is 5 (Herbicidal rate of 90% or more (almost completely withered)).

Q: Which results are given for `COc1ccc(-c2sc3ccccc3c2-c2c(O)c(C)nn(C)c2=O)cc1OC` [1-072]?
A: herbicidal effect rating, A: late watergrass (late watergrass): 2 (Herbicidal rate of 20% or more and less than 40%); herbicidal effect rating, B: Japanese bulrush (Japanese bulrush): 3 (Herbicidal rate of 40% or more and less than 70%); herbicidal effect rating, C: oval-leafed pondweed (oval-leafed pondweed): 5 (Herbicidal rate of 90% or more (almost completely withered)); herbicidal effect rating, F: southern crabgrass (southern crabgrass; [7]): 5 (Herbicidal rate of 90% or more (almost completely withered)); herbicidal effect rating, G: green foxtail (green foxtail; [7]): 5 (Herbicidal rate of 90% or more (almost completely withered)); herbicidal effect rating, H: barnyard grass (barnyard grass [1]; [7]): 5 (Herbicidal rate of 90% or more (almost completely withered)); herbicidal effect rating, I: wild oat (wild oat; [7]): 2 (Herbicidal rate of 20% or more and less than 40%); herbicidal effect rating, J: blackgrass (blackgrass; [7]): 0 (Herbicidal rate of 5% or less (almost no effect)); herbicidal effect rating, M: velvetleaf (velvetleaf; [7]): 5 (Herbicidal rate of 90% or more (almost completely withered)); herbicidal effect rating, N: redroot pigweed (redroot pigweed [2]; [7]): 5 (Herbicidal rate of 90% or more (almost completely withered)); herbicidal effect rating, R: persian speedwell (persian speedwell [3]; [7]): 5 (Herbicidal rate of 90% or more (almost completely withered)); herbicidal effect grade, H: barnyard grass (barnyard grass [4]; three weeks after application): 5 (Herbicidal rate of 90% or more (almost completely withered)); herbicidal effect grade, L: windgrass (windgrass; three weeks after application): 1 (Herbicidal rate of 5% or more and less than 20%); herbicidal effect grade, N: redroot pigweed (redroot pigweed [5]; three weeks after application): 5 (Herbicidal rate of 90% or more (almost completely withered)); herbicidal effect grade, P: chickweed (chickweed; three weeks after application): 5 (Herbicidal rate of 90% or more (almost completely withered)); herbicidal effect grade, R: persian speedwell (persian speedwell [6]; three weeks after application): 5 (Herbicidal rate of 90% or more (almost completely withered))

Q: Which “herbicidal effect rating, A: late watergrass” value (late watergrass) does the source give for `Cc1nn(C)c(=O)c(-c2c(-c3ccc(OCC4CC4)cc3)sc3ccc(F)cc23)c1O` [2-060] here?
A: The value was 0 (Herbicidal rate of 5% or less (almost no effect)).

Q: What about the “herbicidal effect rating, B” value (Japanese bulrush) of the same molecule?
A: The value was 3 (Herbicidal rate of 40% or more and less than 70%).

Q: What about the “herbicidal effect rating, C” value (oval-leafed pondweed) of the same molecule?
A: Its value is 1 (Herbicidal rate of 5% or more and less than 20%).

Q: What about the “herbicidal effect rating, F: southern crabgrass” value (southern crabgrass; 320 g/ha) of the same molecule?
A: Its value is 3 (Herbicidal rate of 40% or more and less than 70%).

Q: What about the “herbicidal effect rating, G: green foxtail” value (green foxtail; 320 g/ha) of the same molecule?
A: The value was 1 (Herbicidal rate of 5% or more and less than 20%).

Q: What about the “herbicidal effect rating, H: barnyard grass” value (barnyard grass [1]; 320 g/ha) of the same molecule?
A: The value was 3 (Herbicidal rate of 40% or more and less than 70%).

Q: What about the “herbicidal effect rating, I: wild oat” value (wild oat; 320 g/ha) of the same molecule?
A: The value was 0 (Herbicidal rate of 5% or less (almost no effect)).

Q: And the “herbicidal effect rating, J: blackgrass” value (blackgrass; 320 g/ha)?
A: The value was 0 (Herbicidal rate of 5% or less (almost no effect)).

Q: What about the “herbicidal effect rating, M: velvetleaf” value (velvetleaf; 320 g/ha) of the same molecule?
A: The value was 0 (Herbicidal rate of 5% or less (almost no effect)).

Q: And the “herbicidal effect rating, N: redroot pigweed” value (redroot pigweed [2]; 320 g/ha)?
A: Its value is 5 (Herbicidal rate of 90% or more (almost completely withered)).

Q: And the “herbicidal effect rating, R: persian speedwell” value (persian speedwell [3]; 320 g/ha)?
A: The value was 5 (Herbicidal rate of 90% or more (almost completely withered)).

Q: What about the “herbicidal effect on H: barnyard grass” value (barnyard grass [4]; [8]) of the same molecule?
A: Its value is 3 (Herbicidal rate of 40% or more and less than 70%).

Q: What about the “herbicidal effect on L: windgrass” value (windgrass; [8]) of the same molecule?
A: The value was 4 (Herbicidal rate of 70% or more and less than 90%).

Q: What about the “herbicidal effect on N: redroot pigweed” value (redroot pigweed [5]; [8]) of the same molecule?
A: The value was 5 (Herbicidal rate of 90% or more (almost completely withered)).

Q: What about the “herbicidal effect on P: chickweed” value (chickweed; [8]) of the same molecule?
A: Its value is 5 (Herbicidal rate of 90% or more (almost completely withered)).

Q: And the “herbicidal effect on R: persian speedwell” value (persian speedwell [6]; [8])?
A: The value was 5 (Herbicidal rate of 90% or more (almost completely withered)).
